{"source": "patent US20100093861A1", "about": "“TREATMENT OF INSULIN RESISTANCE OR DISEASES ASSOCIATED WITH INSULIN RESISTANCE” (Stevia ApS, priority 2006, published 2010)", "key": {"11beta-HSD1": {"system": "11beta-HSD1", "assay": "Gene expression in islets from diabetic KKAy-mice, real time RT-PCR (Example 2): 11beta-HSD1", "assay_type": "in vivo", "conditions": "islets of KKAy-mice after nine weeks treatment, normalized to 18S rRNA", "method": "(§1) A the end of the nine week period of the in vivo study in example 1 RNA was purified from Islets, muscle, liver and fat from the three experimental groups, using standard techniques as described in Kiergen, RNA easy.\n(§2) Gene expression of PDX-1, IRS1, Beta2, 11beta-HSD-1, Akt1, C/EBP-alpha, CPT1, GLUT2, IGF1, IR and Ins1 was measured with Real time RT-PCR using Taq Man Assays normalized to 18S rRNA, using the standard protocol (ABI, USA). All reagents were obtained from (ABI, USA). All probes are standard probes obtainable from ABI, USA, under the specific probe code number, given in respect of each gene."}, "INS-1": {"system": "INS-1", "assay": "Gene expression in islets from diabetic KKAy-mice, real time RT-PCR (Example 2): INS-1", "assay_type": "in vivo", "conditions": "islets of KKAy-mice after nine weeks treatment, normalized to 18S rRNA", "method": "as §1, §2"}, "Ins1": {"system": "Ins1", "assay": "Relative real time RT-PCR in islets of KKAy mice (Example 3): Ins1", "assay_type": "in vivo", "conditions": "9 weeks", "method": "(§3) Islets were isolated by the collagenase digestion technique. In brief, the animals were anesthetized with pentobarbital (50 mg/kg intraperitoneally) and midline laparotomy was performed. The pancreas was retrogradely filled with 3 mL ice-cold Hanks balanced salt solution (([HBSS] Sigma Chemical, St Louis, Mo.) supplemented with 0.3 mg/ml collagenase Boehringer Mannheim GmbH, Germany). The pancreas was subsequently removed and incubated for 19 minutes at 37° C. After rinsing in HBSS, the islets were handpicked under a stereomicroscope and immediately transferred to a tubes containing 1 ml Trizol (Gibco/Invitrogene, Calsbad, Calif., USA). The islets isolated from the NMRI mice were incubated overnight at 37° C. and 95% normal atmosphere/5% CO2 in 10 ml RPMI 1640 containing 11.1 mmol/L glucose supplemented with penicillin G and 100 μg/mL streptomycin (all Gibco/Invitrogene, Calsbad, Calif., USA).\nFor each group, islets from 3-4 mice (180-200 islets) were pooled in 1 ml Trizol reagent (Gibco/lnvitrogene, Calsbad, Calif., USA) before RNA purification. Total RNA was extracted according to the manufactures' instructions. RNA was quantified by measuring absorbance at 260 and 280 nm. The quality of the RNA was checked by the Agilent 2100 bioanalyzer (Agilent, Santa Clara, USA). […]"}, "11-beta-HSD-1": {"system": "11-beta-HSD-1", "assay": "Affymetrix gene chip analysis of KKAy islets: 11-beta-HSD-1", "assay_type": "in vivo, mice", "conditions": "ISV vs. KKAy control islets, 9 weeks", "method": "(§4) cRNA preparation and in vitro transcription: In total 6 Affymetrix arrays MOE430 2.0 probe array cartridge were used i.e. for analysis of 3 replicas for the KKAy control group and the ISV group, respectively. Each of the 6 samples consisted of pooled RNA from 3-4 KKAy mice. Preparation of target for hybridization was prepared from 340 ng of total RNA using MessageAmp™ II aRNA Amplification Kits (Ambion), according to the manufacturers instructions. Arrays were hybridised and scanned as described elsewhere (Kruhoffer et al., 2005)."}, "IR": {"system": "IR", "assay": "Affymetrix gene chip analysis of KKAy islets: IR", "assay_type": "in vivo, mice", "conditions": "ISV vs. KKAy control islets, 9 weeks", "method": "as §4"}, "visfatin": {"system": "visfatin", "assay": "Affymetrix gene chip analysis of KKAy islets: visfatin", "assay_type": "in vivo, mice", "conditions": "ISV vs. KKAy control islets, 9 weeks", "method": "as §4"}, "Pax6": {"system": "Pax6", "assay": "Affymetrix gene chip analysis of KKAy islets: Pax6", "assay_type": "in vivo, mice", "conditions": "ISV vs. KKAy control islets, 9 weeks", "method": "as §4"}, "[1]": {"system": "isolated NMRI mice islets", "assay": "Glucose stimulated insulin secretion (GSIS) from isolated NMRI mice islets", "assay_type": "cell-based", "method": "For in vitro studies with steviol and ISV, we included adult female NMRI mice (Taconic, Ry Denmark), all weighing 22-25 g. We used 12 hours light/dark cycle. The Danish Council for Animal experiments has approved the study.\nas §3\nThe NMRI female mice islets were rinsed twice with a modified Krebs-Ringer buffer (KRB) supplemented with 3.3 mmol/L glucose and 0.1% human serum albumin (Sigma). The KRB contained 125 mmol/L NaCl, 5.9 mmol/L KCl, 1.2 MgCl, 1.28 CaCl2 and 25 mmol/L HEPES (Ph 7.4: all Sigma). Single islets were incubated in 100 μL KRB containing glucose (3.3 and 16.7 mmol/L) and steviol/ISV according to the protocols (Jeppesen et al., 2000). After incubation (60 min), 50 μL of the medium was frozen for RIA analysis of insulin."}}}
{"compound": "C[C@@]12CC[C@@H]3[C@@](CC[C@H]4[C@@]3(C)CCC[C@@]4(C)C(=O)O)(CC1=O)C2", "note": "(single isomer, unassigned; ent-16) [ISV, ent-16-ketobeyeran-19-oic acid]", "values": [{"measurement": "decreased expression of 11beta-HSD1 compared to standard diet", "setting": "11beta-HSD1", "result": 61, "unit": "%"}, {"measurement": "increased expression of INS-1 compared to standard diet", "setting": "INS-1", "result": 132, "unit": "%"}, {"measurement": "increase in Ins1 expression", "setting": "Ins1; RT-PCR", "result": "more than 2 fold"}, {"measurement": "increased expression of Ins1, ISV group vs. control group", "setting": "Ins1; normalized to 18S rRNA", "result": 132, "unit": "%"}, {"measurement": "array: change of 11-beta-HSD-1 expression", "setting": "11-beta-HSD-1", "result": "down regulation"}, {"measurement": "array: change of IR expression", "setting": "IR", "result": "no changes"}, {"measurement": "array: change of visfatin expression", "setting": "visfatin", "result": "no changes"}, {"measurement": "array: increased expression in Pax6", "setting": "Pax6", "result": 1.9, "unit": "fold"}, {"measurement": "effect on insulin secretion at low glucose", "setting": "[1]; 3.3 mmol/L glucose, 60 min incubation", "result": "did not potentiate the insulin secretion"}, {"measurement": "concentration giving apparent maximal effect on glucose stimulated insulin secretion", "setting": "[1]; 16.7 mmol/L glucose, 60 min incubation", "result": "approx. 10^−8 mol/l"}, {"measurement": "potency on GSIS, isosteviol compared with steviol, at higher concentration", "setting": "[1]; 10^−8 mol/l-10^−6 mol/l, 16.7 mmol/l glucose, 60 minutes", "result": "not found any significant difference"}, {"measurement": "potency on GSIS, isosteviol compared with steviol, at low concentration", "setting": "[1]; 10^−10 mol/l, 16.7 mmol/l glucose, 60 minutes", "result": "significantly more potent than steviol"}, {"measurement": "effect on insulin secretion stimulated by 16.7 mmol/L glucose", "setting": "[1]; ISV 10^−12 mol/l-10^−8 mol/l, 60 min incubation", "result": "potentiated insulin secretion"}]}
